Results on 17 compounds are retold here after patent US12171756B2, “NLRP3 modulators” (Innate Tumor Immunity, Inc., priority 2017, dated 2024).

The target of experiment [1] is T1, human TLR8 (Homo sapiens, UniProt Q9NR97).
T1 construct: host or cells: human HEK-Blue cells (HEK293-derived) co-expressing TLR8 and an NF-kB/AP1-inducible SEAP reporter
T1 sequence (Q9NR97 27-1041): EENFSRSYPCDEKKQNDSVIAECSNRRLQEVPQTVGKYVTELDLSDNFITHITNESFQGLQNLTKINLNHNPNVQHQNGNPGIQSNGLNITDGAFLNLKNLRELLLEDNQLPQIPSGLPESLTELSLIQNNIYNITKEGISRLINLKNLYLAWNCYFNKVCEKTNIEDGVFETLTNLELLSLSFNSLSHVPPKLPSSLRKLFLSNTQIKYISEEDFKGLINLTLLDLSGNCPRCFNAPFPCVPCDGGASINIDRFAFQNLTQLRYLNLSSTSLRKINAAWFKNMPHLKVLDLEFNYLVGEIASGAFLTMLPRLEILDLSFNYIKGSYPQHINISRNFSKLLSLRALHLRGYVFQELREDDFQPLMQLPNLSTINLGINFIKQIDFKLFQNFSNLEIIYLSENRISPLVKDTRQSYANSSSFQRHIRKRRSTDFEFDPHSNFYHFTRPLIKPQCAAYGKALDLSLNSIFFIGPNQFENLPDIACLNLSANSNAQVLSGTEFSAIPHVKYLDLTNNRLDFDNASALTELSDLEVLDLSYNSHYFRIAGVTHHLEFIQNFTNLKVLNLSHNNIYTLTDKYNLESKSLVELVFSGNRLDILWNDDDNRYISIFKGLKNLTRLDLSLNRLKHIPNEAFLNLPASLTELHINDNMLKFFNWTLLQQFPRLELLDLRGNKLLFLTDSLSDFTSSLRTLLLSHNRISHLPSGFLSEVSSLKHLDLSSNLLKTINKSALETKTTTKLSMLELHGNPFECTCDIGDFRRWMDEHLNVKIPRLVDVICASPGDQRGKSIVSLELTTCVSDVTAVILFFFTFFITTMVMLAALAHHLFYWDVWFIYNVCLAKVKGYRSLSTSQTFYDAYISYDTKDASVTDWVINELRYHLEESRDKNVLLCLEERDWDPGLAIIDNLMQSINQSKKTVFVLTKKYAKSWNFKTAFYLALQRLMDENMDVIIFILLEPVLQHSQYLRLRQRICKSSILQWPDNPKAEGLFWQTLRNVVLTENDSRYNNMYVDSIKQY
The experiment is described as follows: In vitro human TLR8 binding reporter assay (HEK-Blue, NF-kB/AP1-inducible SEAP). The class given is cell-based. To be noted: HEK-Blue human TLR8 SEAP reporter cells; activity range classes; read-out: TLR8 Agonist EC50. In short, it runs like this:
(§1)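 Cells are seeded and grown for 24 h. Compounds or DMSO are then added and incubated 18 h at 37 °C. Quanti-Blue is added, and SEAP is read after thirty minutes. EC50 values are normalized, with RLU from 50 μM reference standard setting 100% Ymax.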
On the technique in general: A reporter such as luciferase makes a cellular process visible.

The subject of experiment [2] is IL-1β production in PMA-differentiated THP-1 cells. The experiment can be described thus: Measurement of IL-1β production in PMA-differentiated THP-1 cells (ELISA, 4 hours). The class given is cell-based, human. To be noted: Homo sapiens, THP-1, human IL-1β production, assayed using one or more of the described procedures, read-out: NLRP3 hIL1B IC50. In short, it runs like this: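 THP-1 cells differentiated with PMA (10 μg/ml, 24 h), replated at 1×10^6 cells/ml in RPMI with 2% FBS and exposed to compounds (e.g. 0.1–100 μM, 1% DMSO final) for 4 hours. IL-1β in cell-free supernatant quantified by ELISA against vehicle control.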
In general terms: An ELISA detects its analyte on a solid surface through an enzyme-linked reagent.

For experiment [3], the target named is T2, human TLR7 (Homo sapiens, UniProt Q9NYK1).
T2 construct: host or cells: human HEK-Blue cells (HEK293-derived) co-expressing TLR7 and an NF-kB/AP1-inducible SEAP reporter
T2 sequence (Q9NYK1 27-1049): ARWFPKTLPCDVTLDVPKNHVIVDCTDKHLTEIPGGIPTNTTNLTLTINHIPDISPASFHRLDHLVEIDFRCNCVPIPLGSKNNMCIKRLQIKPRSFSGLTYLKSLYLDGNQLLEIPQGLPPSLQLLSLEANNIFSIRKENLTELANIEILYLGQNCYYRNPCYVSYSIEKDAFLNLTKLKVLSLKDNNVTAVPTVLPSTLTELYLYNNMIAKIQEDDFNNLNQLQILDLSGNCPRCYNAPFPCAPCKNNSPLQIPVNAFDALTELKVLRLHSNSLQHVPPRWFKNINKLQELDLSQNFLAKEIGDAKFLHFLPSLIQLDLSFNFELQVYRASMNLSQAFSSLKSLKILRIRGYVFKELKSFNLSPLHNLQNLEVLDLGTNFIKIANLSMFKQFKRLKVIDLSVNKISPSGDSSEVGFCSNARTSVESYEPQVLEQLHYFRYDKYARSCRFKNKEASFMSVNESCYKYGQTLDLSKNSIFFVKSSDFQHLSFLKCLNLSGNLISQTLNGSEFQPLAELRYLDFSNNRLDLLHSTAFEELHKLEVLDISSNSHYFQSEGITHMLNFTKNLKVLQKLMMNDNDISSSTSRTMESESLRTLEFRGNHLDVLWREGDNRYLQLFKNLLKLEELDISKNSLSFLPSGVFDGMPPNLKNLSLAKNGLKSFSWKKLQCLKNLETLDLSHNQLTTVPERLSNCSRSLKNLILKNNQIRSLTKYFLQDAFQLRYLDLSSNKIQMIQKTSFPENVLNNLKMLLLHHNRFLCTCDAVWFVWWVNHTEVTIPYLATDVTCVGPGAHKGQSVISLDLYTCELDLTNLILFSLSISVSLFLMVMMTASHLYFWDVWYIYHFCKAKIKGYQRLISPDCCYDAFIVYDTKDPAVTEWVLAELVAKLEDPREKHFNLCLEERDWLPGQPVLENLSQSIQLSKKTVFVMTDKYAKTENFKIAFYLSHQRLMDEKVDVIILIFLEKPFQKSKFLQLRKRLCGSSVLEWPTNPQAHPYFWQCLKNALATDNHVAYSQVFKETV
The experiment can be described thus: In vitro human TLR7 binding reporter assay (HEK-Blue, NF-kB/AP1-inducible SEAP). The class given is cell-based. As to conditions: HEK-Blue human TLR7 SEAP reporter cells; activity range classes; read-out: TLR7 Agonist EC50. The procedure, abridged: as §1

As a reminder, the EC50 is the concentration needed to bring the measured effect to its halfway point. Broadly, the IC50 is the midpoint of a concentration-inhibition curve. On to `Nc1cc(OC(CO)CO)c2ccc(-c3ccn[nH]3)cc2n1` [Compound 202, 2-((2-amino-7-(1H-pyrazol-5-yl)quinolin-4-yl)oxy)propane-1,3-diol], for which the EC50 in experiment [1] and in experiment [3] was more than 100 µM in each case. Further, the IC50 in experiment [2] is 1.89 µM.

For the compound `Nc1cc(NCCCc2cccnc2)c2ccc(-c3ccn[nH]3)cc2n1` [Compound 238], the EC50 in experiment [1] and in experiment [3] was more than 100 µM each time. For the same compound, the IC50 in experiment [2] amounted to 1.49 µM.

In the case of `Nc1cc(N[C@H]2CCC[C@H]2O)c2ccc(-n3cccn3)cc2n1` [Compound 304], the EC50 in experiment [1] and in experiment [3] was more than 100 µM each time. Besides, the IC50 in experiment [2] amounted to 0.37 µM.

In the case of `Nc1cc(NC2CCOCC2)c2ccc(-c3ccn[nH]3)cc2n1` [Compound 278], the EC50 in experiment [1] and in experiment [3] was more than 100 µM each time. The IC50 in experiment [2] was found to be 1.31 µM.

Consider `Nc1cc(NC[C@@H](O)CO)c2ccc(-c3ccn[nH]3)cc2n1` [Compound 287], for which the EC50 in experiment [1] and in experiment [3] was more than 100 µM each time. The IC50 in experiment [2] was 0.7 µM.

For `Nc1cc(NCc2cccnc2)c2ccc(-n3cccn3)cc2n1` [Compound 175], the EC50 in experiment [1] and in experiment [3] was more than 100 µM each time. In addition, the IC50 in experiment [2] amounted to 0.97 µM.

Consider `Nc1cc(N[C@H]2CCCNC2)c2ccc(-c3ccn[nH]3)cc2n1` [Compound 324], for which the EC50 in experiment [1] and in experiment [3] was more than 100 µM throughout. The IC50 in experiment [2] was determined as 1.76 µM.

For `Nc1cc(OCCO)c2ccc(-c3ccn[nH]3)cc2n1` [Compound 178, 2-((2-amino-7-(1H-pyrazol-5-yl)quinolin-4-yl)oxy)ethan-1-ol], the EC50 in experiment [1] and in experiment [3] was more than 100 µM throughout. In addition, in experiment [2], the IC50 came to 0.7 µM.

In the case of `Nc1cc(NC[C@@H]2COCCN2)c2ccc(-c3ccn[nH]3)cc2n1` [Compound 268], the EC50 in experiment [1] and in experiment [3] was more than 100 µM each time. Also, the IC50 in experiment [2] is 0.97 µM.

In the case of `COc1cccc(C(C)Nc2cc(N)nc3cc(-c4ccn[nH]4)ccc23)n1` (stereo not drawn) [Compound 129, N4-(1-(6-methoxypyridin-2-yl)ethyl)-7-(1H-pyrazol-5-yl)quinoline-2,4-diamine], the EC50 in experiment [1] and in experiment [3] was more than 100 µM in each case. The IC50 in experiment [2] was found to be 2.29 µM.

Regarding `Cn1ncnc1COc1cc(N)nc2cc(-c3ccn[nH]3)ccc12` [Compound 312], the EC50 in experiment [1] and in experiment [3] was more than 100 µM each time. Further, the IC50 in experiment [2] is 1.59 µM.

Consider `Cc1cn(CCNc2cc(N)nc3cc(-c4ccn[nH]4)ccc23)nn1` [Compound 236], for which the EC50 in experiment [1] and in experiment [3] was more than 100 µM each time. Further, the IC50 in experiment [2] amounted to 2.65 µM.

As to `Nc1nc2cc(-c3cc[nH]n3)ccc2cc1CCCCCO` [Compound 101, 5-[2-amino-7-(1H-pyrazol-3-yl)quinolin-3-yl]pentan-1-ol], the EC50 in experiment [1] and in experiment [3] was more than 100 µM throughout. Moreover, in experiment [2], the IC50 was found to be 0.79 µM.

`Nc1cc(NCCc2cccnn2)c2ccc(-c3cccs3)cc2n1` [Compound 342, N4-(2-(pyridazin-3-yl)ethyl)-7-(thiophen-2-yl)quinolin-2,4-diamine]: the EC50 in experiment [1] and in experiment [3] was more than 100 µM throughout. The IC50 in experiment [2] turned out to be 1.1 µM.

`Nc1cc(-c2cn[nH]c2)c2ccc(-c3ccn[nH]3)cc2n1` [Compound 347, 4-(1H-pyrazol-4-yl)-7-(1H-pyrazol-5-yl)quinolin-2-amine]: the EC50 in experiment [1] and in experiment [3] was more than 100 µM in each case. In addition, the IC50 in experiment [2] amounted to 1.18 µM.

Turning to `Nc1cc(OCCCn2cccn2)c2ccc(-c3ccn[nH]3)cc2n1` [Compound 196], the EC50 in experiment [1] and in experiment [3] was more than 100 µM in each case. In addition, in experiment [2], the IC50 came to 1.11 µM.

As for `Nc1cc(OCC2(CO)CCC2)c2ccc(-c3ccsc3)cc2n1` [Compound 336], the EC50 in experiment [1] and in experiment [3] was more than 100 µM throughout. Also, the IC50 in experiment [2] is 2.03 µM.
